In assay [1] the test system is E. faecium (R-2). The format is cell-based, Enterococcus faecium. The following applies: E. faecium R-2 (VRE). The text has this:
(§1) The in-vitro potency was established by minimum inhibitory concentration (MIC) determinations of the compound PM181104 against bacterial strains, by using the Macro-broth dilution method as per National Committee for Clinical Laboratory Standards (2000) guidelines [Journal of Anti-microbial Chemotherapy, 2002, 50, 125-128 (Cross Reference 8: Methods for Dilution Antimicrobial Susceptibility Tests for Bacteria that Grow Aerobically-Fifth Edition: Approved Standard M7-A5. NCCLS, Wayne, Pa., USA)]. Unless stated otherwise, Mueller-Hinton broth was used as nutrient medium for the assay. Linezolid (manufactured by Glenmark Pharma Ltd; Batch no: K2005028) was used as known standard in all in-vitro experiments. For preparation of the stock solution the compound PM181104 was dissolved in chloroform (5% of the total required volume) and diluted using methanol (95% of the total required volume).

Assay [2] has as its system S. aureus E-710. Nature of the assay: Lung infection model. The format is in vivo, Balb/C mice. From the text:
(§2) The in-vivo potency was established by protection dose (PD) determinations of the compound PM181104 for its antibiotic activity in three animal models using either male or female Balb/C mice.
(§3) The models used were the general purpose efficacy testing models and organ/tissue specific efficacy testing models. The general purpose efficacy testing models used were systemic infection model (septicemia), and localized infection model (neutropenic thigh model). The Organ/Tissue specific infection models used for efficacy testing were kidney, lung infection, and skin abscess model.
Balb/C mice were rendered neutropenic by intraperitoneally administering 200 mg/kg cyclophosphamide four days and two days prior to infection. On the day of infection, the mice were anesthetized and infected with S. aureus E-710 log-phase culture suspension having bacterial density of approximately 10^6 to 10^7 cfu/ml. 24 and 36 hours post infection the first and second respective dose of drug was administered intravenously. 48 hours post infection, the animals were humanely euthanized and their lungs were aseptically collected to determine the viable count of bacteria. In this model, PM181104 was tested at 5 mg/kg dose prepared in cremophor-ethanol formulation as described in example 14. Two standard antibiotics viz. Linezolid (80 mg/kg single dose at 24 hours post infection) and Vancomycin (110 mg/kg, two doses at 24 and 48 hours post infection) were used as positive controls.

For assay [3], the system named is Enterococcus faecium ATCC 47077. Nature of the assay: Kidney infection model. The format is in vivo, Balb/C mice.
Source text: as §2, §3
0.2 ml of 2% λ Carrageenan was administered intravenously to Balb/C mice 7 days prior to infection. Overnight grown log phase culture of Enterococcus faecium ATCC 47077 adjusted to approximately 10^9 cfu/ml, was injected intravenously to the mice at a volume of 0.2 ml. PM181104 solution, prepared in cremophor-ethanol formulation as described in example 14, was administered intravenously to the mice at 4 hours, 24 hours and 48 hours post-infection. At 72 hours post infection, the animals were sacrificed and kidneys were harvested to determine the bacterial load. […] Linezolid (manufactured by Glenmark Pharma Ltd; Batch no: K2005028) at 25 mg/kg and Vancomycin hydrochloride (manufactured by HiMedia; Catalogue no: RM217-500 mg; Lot no: 06-0350) at 150 mg/kg dose.

Assay [4] has as its system E. faecalis, ATCC 51299. The format is cell-based.
Source text: as §1

Assay [5] deals with Staphylococcus aureus subsp. aureus ATCC 33591. The format is cell-based. As to conditions: S. aureus MRSA ATCC 33591.
Source text: as §1

In assay [6] the test system is E. faecalis ATCC 51575. The class given is cell-based.
Source text: as §1

Assay [7] relates to E. faecalis ATCC BAA 472. The assay can be described thus: MIC, Macro-broth dilution method. The class given is cell-based.
Source text: as §1

Assay [8] relates to E. faecium ATCC 51559. The class given is cell-based, Enterococcus faecium.
Source text: as §1

In assay [9] the test system is S. aureus (E710). Nature of the assay: MIC, Macro-broth dilution method. The class given is cell-based, Staphylococcus aureus. The following applies: S. aureus MRSA E710.
Source text: as §1

The test system of assay [10] is S. aureus E-710. The assay can be described thus: Neutropenic thigh model. The class given is in vivo, Balb/C mice. The following applies: Linezolid at 25 mg/kg dose.
Source text: as §2, §3
Each experimental group consisted of six animals. PM181104 was prepared in cremophor-ethanol formulation as described in example 14.

For assay [11], the system named is methicillin resistant S. aureus E710 (MRSA). The class given is in vivo, Balb/C mice. As to conditions: Linezolid at 50 mg/kg dose.
Source text: as §2, §3
Balb/C mice were infected subcutaneously with approximately 10^8 cfu of an overnight grown culture of methicillin resistant S. aureus E710 (MRSA). The bacteria were suspended in 1:1 mixture of 2% cytodex beads in normal saline (0.85% sodium chloride). PM181104 was prepared in cremophor-ethanol formulation as described in example 14. The solution was administered intravenously at 2.5 mg, 5 mg and 10 mg/kg doses, two hours post infection. Each experimental group consisted of six animals. Following abscess formation the animals were sacrificed and abscess harvested to determine the viable counts. […] Linezolid (manufactured by Glenmark Pharma Ltd; Batch no: K2005028) at 50 mg/kg dose.

Assay [12] concerns methicillin resistant Staphylococcus aureus E710 (MRSA). Nature of the assay: Systemic infection model (septicemia). The format is in vivo, Balb/C mice. As to conditions: mice infected intraperitoneally with MRSA E710, administered intravenously immediately after infection.
Source text: as §2, §3
The animals were infected intraperitoneally with ˜10^8 to 10^9 cfu of an overnight grown culture of methicillin resistant Staphylococcus aureus E710 (MRSA), suspended in normal saline (0.85% sodium chloride). PM181104 solution was prepared in cremophor-ethanol formulation as described in example 14. The solution was administered intravenously at 5 mg, 2.5 mg and 1.25 mg/kg doses, immediately after infection. Each experimental group consisted of ten animals.

≈ marks a conversion by molar mass, not a printed value. Counter-ions that a name gives are not always drawn.

The compound `C=C(NC(=O)C(=C)NC(=O)C1CCCN1C(=O)c1nc(-c2ccc(-c3nc(C(=O)NC(=C)C(=O)NC(C)C(N)=O)cs3)c(-c3csc(C4Cc5nc(cs5)C(=O)NC(Cc5ccccc5)C5=NC(CS5)C(=O)NC(Cc5ccc(OC(=O)CCC)cc5)C(=O)N5CCCC5c5nc(cs5)C(=O)N4)n3)n2)oc1C)C(N)=O` (stereo not shown) [Butyric Acid Ester Derivative of PM181104] gave an MIC in [1] of 2.5 mg/L (≈ 1.58 µM).
Take `CN[C@H](CC(C)C)C(=O)N[C@H]1C(=O)N[C@@H](CC(N)=O)C(=O)N[C@H]2C(=O)N[C@H]3C(=O)N[C@H](C(=O)N[C@H](C(=O)O)c4cc(O)cc(O)c4-c4cc3ccc4O)[C@H](O)c3ccc(c(Cl)c3)Oc3cc2cc(c3O[C@@H]2O[C@H](CO)[C@@H](O)[C@H](O)[C@H]2O[C@H]2C[C@](C)(N)[C@H](O)[C@H](C)O2)Oc2ccc(cc2Cl)[C@H]1O` [Vancomycin hydrochloride, reference compound]: the “activity profile in lung infection” value in assay [2] (Vancomycin 110 mg/kg, two doses at 24 and 48 hours post infection) is “bactericidal profile”. Besides, the “decrease in bacterial count in kidneys, comparison with PM181104” value in [3] (Vancomycin hydrochloride at 150 mg/kg dose) was “comparable”.
Take `C=C(NC(=O)C(=C)NC(=O)C1CCCN1C(=O)c1nc(-c2ccc(-c3nc(C(=O)NC(=C)C(=O)NC(C)C(N)=O)cs3)c(-c3csc(C4Cc5nc(cs5)C(=O)NC(Cc5ccccc5)C5=NC(CS5)C(=O)NC(Cc5ccc(OC(=O)c6cccnc6)cc5)C(=O)N5CCCC5c5nc(cs5)C(=O)N4)n3)n2)oc1C)C(N)=O` (stereo not shown) [Nicotinic Acid Ester Derivative of PM181104]: the minimum inhibitory concentration (MIC) in [4] is 0.312 mg/L (≈ 0.192 µM); in assay [5], >10 mg/L; in [6] it was 0.312 mg/L (≈ 0.192 µM); in assay [7], 0.312 mg/L (≈ 0.192 µM); in assay [1], 0.312 mg/L (≈ 0.192 µM); in [8], 0.156 mg/L (≈ 0.0962 µM). Also, the MIC in [9] was >10 mg/L.
As to `CC(=O)NC[C@H]1CN(c2ccc(N3CCOCC3)c(F)c2)C(=O)O1` [Linezolid, reference compound], the “decrease in viable counts in thigh tissue, comparison with PM181104” value in [10] is given as “comparable”. For the same compound, in assay [2] (Linezolid 80 mg/kg single dose at 24 hours post infection), the “activity profile in lung infection, comparison with PM181104” value is given as “comparable”. For the same compound, in [11], the “decrease in bacterial count in abscess, comparison with PM181104” value is given as “comparable”. Besides, in [3] (Linezolid at 25 mg/kg), the “decrease in bacterial count in kidneys, comparison with PM181104” value was “comparable”. Further, the PD100 in assay [12] worked out at 25 mg/kg.
Compound `C=C(NC(=O)C(=C)NC(=O)C1CCCN1C(=O)c1nc(-c2ccc(-c3nc(C(=O)NC(=C)C(=O)NC(C)C(N)=O)cs3)c(-c3csc(C4Cc5nc(cs5)C(=O)NC(Cc5ccccc5)C5=NC(CS5)C(=O)NC(Cc5ccc(OC(=O)CCCCCCCCCCCCCCCCC)cc5)C(=O)N5CCCC5c5nc(cs5)C(=O)N4)n3)n2)oc1C)C(N)=O` (stereo not shown) [Stearic Acid Ester Derivative of PM181104] displayed an MIC in assay [1] of 1.25 mg/L (≈ 0.701 µM).

The record behind these values is patent publication US8003602B2 (priority 2006, dated 2011).
